Experiments:
ruminal fluid [1] = assay: in vitro Hohenheim gas test (HGT), methane concentration in fermentation gas; type: cell-based, sheep; settings: 98.8 μg/ml; for Average Reduction (%) / Percentage of Control (First Run) / Percentage of Control (Second Run): methane; for Average Reduction (%): average of two runs
Method: (§1) The in vitro Hohenheim gas test (HGT) including the preparation of all buffers and reagents was carried out according to the protocol of Menke and Steingass (1988), “Menke K. H., Steingass H., Estimation of the energetic feed value obtained from chemical analysis and gas production using rumen fluid, Anim. Res. Dev. 28, 7-55”, the contents of which are incorporated herein by reference.
Briefly, ruminal fluid was strained through four layers of gauze (1 mm pore size, type 17 MedPro, Novamed AG, Flawil, Switzerland), before being mixed with preheated, reduced Menke buffer (Menke and Steingass, 1988). The ruminal fluid/buffer mixture was then dispensed into pre-warmed incubation units containing the respective test additives. Each airtight syringe unit contained 25 ml of a ruminal fluid/buffer mixture (1:3; v/v), 300 mg dried and ground total mixed ration (TMR) and […] of the test substrate prepared to give a desired concentration ml^−1. Each test substrate and controls were tested in six replicates, with each run including a substrate control (rumen fluid plus 300 mg dried and ground substrate of the total mixed ration (TMR) fed to the fistulated sheep from which the ruminal fluid was obtained). Each substrate was also tested on different days to allow for variability in the microbial community. This mixture was incubated for 8 hours at a constant temperature of 39° C. After 8 hours, total gas and liquid volumes were recorded from the calibrated scale printed on the incubation units and fermentation was terminated by decanting only the incubation liquid from the incubation units while fermentation gas was left inside. Then […] of gas was drawn from the incubation units with a Hamilton syringe (Hamilton, AG, Bonaduz, Switzerland) through a gas-tight septum covering the second outlet of the modified units. The main constituents of the flavonoid mix were naringin and neohesperidin at a ratio of 2.10:0.92. Monensin, a polyether antibiotic isolated from Streptomyces cinnamonensis, was used as a positive control.
Fermentation gas was analysed on a Hewlett Packard gas chromatograph (model 5890 Series II, Avondale, Pa., USA) for methane concentration. For the analysis of the volatile fatty acids (VFA), samples were prepared according to the method of Doane et al. (1998) and determined by HPLC (LaChrom, L-7000 series, Hitachi Ltd., Tokyo, Japan) following the protocol of Ehrlich et al. (1981). Reduction in methane emission results in accumulation of H2, which leads to the decreases of acetate:propionate ratio and acetate:butyrate ratio. This decreased ratio indicates an increase in propionate and butyrate (as formation of propionate and butyrate uses up the H2). The increase in propionate would then result in an increase of meat productivity in ruminants, while the increase in butyrate results in an increase of milk productivity in ruminants.
The in vitro Hohenheim gas test (HGT) was used to measure average reduction in methane using a composition comprising allicin and a green tea extract and a composition comprising allicin and a pomegranate extract. The green tea and pomegranate extracts were purchased from Ethical Natural Inc. (USA).
A composition comprising allicin and the flavonoid mix used in Example 1 was also tested. Monensin, a polyether antibiotic isolated from Streptomyces cinnamonensis, was used as a positive control.

ruminal fluid [2] = assay: in vitro Hohenheim gas test (HGT), volatile fatty acids (VFA) by HPLC; type: cell-based, sheep; settings: Table 2; 98.8 μg/ml
Method: as §1
Briefly, ruminal fluid was strained through four layers of gauze (1 mm pore size, type 17 MedPro, Novamed AG, Flawil, Switzerland), before being mixed with preheated, reduced Menke buffer (Menke and Steingass, 1988). The ruminal fluid/buffer mixture was then dispensed into pre-warmed incubation units containing the respective test additives. […] After 8 hours, total gas and liquid volumes were recorded from the calibrated scale printed on the incubation units and fermentation was terminated by decanting only the incubation liquid from the incubation units while fermentation gas was left inside. […]
Fermentation gas was analysed on a Hewlett Packard gas chromatograph (model 5890 Series II, Avondale, Pa., USA) for methane concentration. For the analysis of the volatile fatty acids (VFA), samples were prepared according to the method of Doane et al. (1998) and determined by HPLC (LaChrom, L-7000 series, Hitachi Ltd., Tokyo, Japan) following the protocol of Ehrlich et al. (1981). […]

## CC[C@@]1([C@@H]2O[C@@H]([C@H]3O[C@@](O)(CO)[C@H](C)C[C@@H]3C)C[C@@H]2C)CC[C@H]([C@]2(C)CC[C@]3(C[C@H](O)[C@@H](C)[C@@H]([C@@H](C)[C@@H](OC)[C@H](C)C(=O)O)O3)O2)O1 [Monensin]
Ruminal fluid [1]; Table 1, 8 h, 39° C.
  Average Methane Concentration (%) (First Run): 8.89%
  Average Methane Concentration (%) (Second Run): 9.71%
Ruminal fluid [1]; Table 1
  Average Reduction (%): 27%
  Percentage of Control (First Run): 73%
  Percentage of Control (Second Run): 74%
Ruminal fluid [1]; Table 3
  Average Methane Concentration (%) (First Run): 8.2%
  Average Methane Concentration (%) (Second Run): 9.9%
  Average Reduction (%): 27%
  Percentage of Control (First Run): 66%
  Percentage of Control (Second Run): 80%
Ruminal fluid [1]; Table 4
  Average Methane Concentration (%) (First Run): 8.1%
  Average Methane Concentration (%) (Second Run): 7.1%
  Average Reduction (%): 33%
  Percentage of Control (First Run): 67%
  Percentage of Control (Second Run): 66%
Ruminal fluid [2]
  Butyrate Percentage of Control (%): 73%
  Propionate Percentage of Control (%): 116%

Source: patent publication US20200138056A1, “ANIMAL FEED SUPPLEMENT” (MOOTRAL SA, priority 2017, published 2020)
